US9937192B2, “Combination therapy to treat mycobacterium diseases” (priority 2012, dated 2018)
Converted amounts (≈) assume the structure as drawn. Structures can show the parent of a compound that is named as a salt. Where two headings read alike, the source gives them in different places.

Tests used:
M. tuberculosis H37Rv [1] = test: Monotherapy against established TB in mice (dose-ranging activity study); format: in vivo; settings: for Log cfu (lung) / Log Reduction: BALB/c mice, M. tuberculosis H37Rv; for Log cfu (lung): 4 weeks of treatment; for Log Reduction: 4 weeks, vs untreated control
[2] = Rat IV Study (pharmacokinetics); settings: male Sprague Dawley rats, plasma analyte = label
[3] = system: intracellular M. tuberculosis in THP-1 cells; test: microbe, parasite or virus in culture; format: cell-based; settings: Mycobacterium tuberculosis, H37RA; for MIC: read-out: MIC, Macrophage Cells
M. tuberculosis = test: microbe, parasite or virus in culture; format: cell-based; settings: for MIC: Mycobacterium tuberculosis, H37RA, read-out: MIC, Broth
[4] = system: Mycobacterium tuberculosis; test: Mycobacterium tuberculosis Serum Shift MIC Assay (Protocol 5); format: cell-based; settings: ATCC 35801 / ERDMAN
Excerpt: Protocol 5. Protocol for Mycobacterium tuberculosis Serum Shift MIC Assay
Media Prep: • 1. […] It was important that all media and supplements were sterilized prior to MICs. • 2. Prepared all media below and inoculated as described in next section. Tested all compounds against Mtb using each media. • a. […] 7H9+0.2% glycerol+2 g/L dextrose+0.85 g/L NaCl+0.003 g/L catalase (0% FBS). • c. 2×7H9+0.2% glycerol+2 g/L dextrose+0.85 g/L NaCl+0.003 g/L catalase combined with equal volume Fetal Bovine Serum (50% FBS).
Inoculum Prep: • 1. Using BBL Prompt, picked 5-10 well-separated colonies and inoculated 1 ml sterile saline that came in the kit. Typically plates were two to three weeks of age when used for this assay due to the slow growth of this organism in culture. • 2. Vortexed well, then sonicated in water bath for 30 sec providing a suspension of ˜10^8 cells/ml. Actual density could be confirmed by plating out dilutions of this suspension. • 3. Prepared inoculum in each of the three media formulations by diluting the BBL Prompt suspension 1/200 (for example: transferred 0.2 ml of cells to 40 ml of medium) to obtain a starting cell density of […]. • 4. Used 100 μl cells (˜5×10^4 cells) to inoculate each microtiter well containing 1 μl of drug in DMSO (see below).
Drug Dilutions, Inoculation, MIC Determination: • 1. Control drug stocks Isoniazid and Novobiocin were prepared at 10 mM in 100% DMSO while Ciprofloxacin and Rifampin were prepared at 1 mM in 50% DMSO and 100% DMSO, respectively. Prepared dilutions—dispensed 100 μL of the stock solution into the first column of a 96-well plate. Prepared 11-step, 2-fold serial dilutions across the row for each compound by transferring 50 μl from column 1 into 50 μl of DMSO in column 2. Continued to transfer 50 μL from column 2 through column 11 while mixing and changing tips at each column. Left column 12 with DMSO only as a control. • 2. Transferred 1 μl of each dilution into an empty microtiter well prior to the addition of 100 μl of cells. The starting concentration of Isoniazid and Novobiocin was 100 μM after the dilution into medium+cells; the starting concentration of Ciprofloxacin and Rifampin was 10 μM after the dilution into medium+cells. Compound concentrations decreased in 2× steps moving across the rows of the microtiter plate. […] Measured background fluorescence at Excitation 492 nm, Emission 595 nm and returned the plate to the incubator for another 24 hours.
After 24 hours the fluorescence of each well was measured at Excitation 492 nm, Emission 595 nm.
Percent inhibition by a given compound was calculated as follows: Percent inhibition=100−([well fluorescence-average background fluorescence]/[DMSO control−average background fluorescence]×100). […]

[5] = Seven-Day Oral (Gavage) Toxicity and Toxicokinetics Study in Rats; format: in vivo, Crl:CD(SD) rats; settings: male rats
Excerpt: Seven-Day Oral (Gavage) Toxicity and Toxicokinetics Study in Rats
Crl:CD(SD) rats were obtained from Charles River Laboratories of Stone Ridge, N.Y. The animals were laboratory bred and experimentally naïve. Rats were chosen because they are a species that is commonly used for nonclinical toxicity evaluations.
Animals received the test article or vehicle by oral gavage for 7 consecutive days and were terminated the day following completion of dosing. The first day of dosing was designated as Day 1 of the study. The animals were evaluated for changes in clinical signs, body weight, and other parameters as described below.
The vehicle and test article were administered by oral gavage once daily for 7 consecutive days at a dose volume of 10 mL/kg body weight for Group A and Groups B-D, respectively. The test article and vehicle were administered by oral gavage twice daily, approximately 8 hours apart, for 7 consecutive days at a dose volume of 10 mL/kg body weight for Group E and Group F, respectively. The actual volume administered to each animal was calculated and adjusted based on the most recent body weight of each animal.
During the treatment period, daily cageside observations were made and recorded predose and postdose (following the first dose only). The postdosing observations made during treatment occurred at the following times based on Cmax/Tmax for the two compounds from previous studies:
Prior to start of dosing, body weights were measured for randomization on Day 1. During the treatment, body weights were measured on Day 1 and Day 7. In addition, fasted body weights were measured prior to necropsy for calculation of organ/body weight ratios.
Throughout the study, food consumption was measured daily starting 3 days prior to start of dosing.
Blood samples for evaluation of hematology, coagulation, and serum chemistry parameters were collected from all animals from the retro-orbital plexus (under CO2/O2 anesthesia, for the main study animals) or jugular vein cannula (for the toxicokinetic animals) prior to necropsy. Due to residual heparin used to keep the cannulas patent for the toxicokinetic animals, coagulation samples from these rats, were not able to be analyzed. The animals were fasted overnight prior to blood collection. On the day of blood collection for clinical pathology analyses, the animals were not necropsied until after the blood was collected and the samples judged to be acceptable by the clinical pathology group.
On the 1st and 7th day of dosing, blood samples (approximately 0.5 mL/sample) were collected from the jugular vein cannula for all toxicokinetic animals at the timepoints listed below into K3EDTA-containing tubes. […] Prior to each collection, a small sample of blood (with heparin blocking solution) was removed from the cannula and discarded. A new syringe was placed on the cannula, and the protocol-required sample was taken. The syringe with the blood sample was removed, and a new syringe with saline attached to the cannula. Blood volume was replaced with an equal volume of saline and then blocking solution placed in the cannula. Each animal was returned to its cage until the next collection timepoint.
For all animals euthanized at scheduled necropsies, the kidneys, liver, and prostate gland were weighed. Following weighing, an approximate 1 gram sample of liver and kidney was weighed, transferred to Precellys 7 mL CK28 Tissue Homogenizing tubes (Cat. No. 0904-01), snap-frozen, and analyzed.
For all animals scheduled for the terminal necropsy, the kidneys, liver, and prostate were embedded in paraffin, sectioned and stained with hematoxylin and eosin for further examination by light microscopy. For Groups A, D, E, and F only, the remaining tissues listed above were embedded in paraffin, sectioned and stained with hematoxylin and eosin for further examination by light microscopy. […]

M. tuberculosis H37Rv [6] = test: Minimum bactericidal concentration (MBC) assay; format: cell-based; settings: 0.125 ug/mL
[7] = system: Non-Replicating (NRP) M. tuberculosis H37Ra; test: Non-replicating (NRP) M. tuberculosis H37Ra (luciferase) culture assay; format: cell-based; settings: Mycobacterium tuberculosis, 336 h, read on day 14
[8] = 100 mg/kg daily 5 days per week
[9] = Compound W dosed IV bolus 1 mg/kg in D5W
[10] = Compound W dosed IV bolus 5 mg/kg in D5W

CCNC(=O)Nc1nc2cc(-c3cnc(C(C)(C)OP(=O)([O-])[O-])nc3)c(F)c([C@H]3CCCO3)c2[nH]1.[Na+].[Na+] [Compound W, disodium (R)-2-(5-(2-(3-ethylureido)-6-fluoro-7-(tetrahydrofuran-2-yl)-1H-benzo[d]imidazol-5-yl)pyrimidin-2-yl)propan-2-yl phosphate]
Log cfu (lung) (M. tuberculosis H37Rv [1]; 10 mg/kg daily 5 days per week): 6.38
Log Reduction (M. tuberculosis H37Rv [1]; 10 mg/kg daily 5 days per week): 0
Log cfu (lung) (M. tuberculosis H37Rv [1]; 30 mg/kg daily 5 days per week): 5.51
Log Reduction (M. tuberculosis H37Rv [1]; 30 mg/kg daily 5 days per week): 0.49
Log cfu (lung) (M. tuberculosis H37Rv [1]; [8]): 5.35
Log Reduction (M. tuberculosis H37Rv [1]; [8]): 0.65
activity compared with no treatment (M. tuberculosis H37Rv [1]; at 30 and 100 mg/kg, p<0.01 by one-way ANOVA with Dunnett's post-test): superior to no treatment
AUCextrap [2, 9]: 419 ng·h/mL
Cl_obs [2, 9]: 46.7 mL/min/kg
Vss_obs [2, 9]: 0.38 L/kg
t½ [2, 9]: 0.9 h
AUCextrap [2, 10]: 1120 ng·h/mL
Cl_obs [2, 10]: 84.6 mL/min/kg
Vss_obs [2, 10]: 5.8 L/kg
t½ [2, 10]: 7.2 h

CC[C@@H](CO)NCCN[C@@H](CC)CO [Ethambutol]
MIC [3]: 1.26 µg/mL (≈ 6.17 µM)
MIC (M. tuberculosis): 2.55 µg/mL (≈ 12.5 µM)

CCNC(=O)Nc1nc2cc(-c3cnc(C(C)(C)O)nc3)cc([C@H]3CCCO3)c2[nH]1 [Compound 13, methanesulfonic acid salt of 1-ethyl-3-[5-[2-(1-hydroxy-1-methyl-ethyl)pyrimidin-5-yl]-7-[(2R)-tetrahydrofuran-2-yl]-1H-benzimidazol-2-yl]urea]
MIC ([4]; M. tuberculosis Erdman ATCC 35801, read-out: MIC): 0.045 µg/mL
MIC ([4]; M. tuberculosis Erdman ATCC 35801 with Mouse Serum): 2 µg/mL
dose levels at which no adverse toxicity was demonstrated ([5]; 7 days oral gavage): up to 200 mg/kg/day
adverse observations or effects on mean body weight ([5]; 7 days oral gavage, all dose groups): No adverse observations or effects on mean body weight
histopathological findings ([5]; any dose regimen): No test article-related histopathological findings
NOEL (No-Observable-Effect-Level) ([5]; once a day for 7 days orally via gavage): 200 mg/kg
Mean food consumption ([5]; once daily 100 or 200 mg/kg, not considered adverse): reduced
exposures for different dosage levels ([5]; toxicokinetics): dose related

NNC(=O)c1ccncc1 [Isoniazid, isonicotinohydrazide, reference compound]
Log cfu (M. tuberculosis H37Rv [6]): 4.28
Log Reduction (M. tuberculosis H37Rv [6]; vs untreated control): 1.85
IC50 [7]: > 50 µg/mL
MIC [3]: 0.012 µg/mL (≈ 0.0875 µM)
Log cfu (lung) (M. tuberculosis H37Rv [1]; 10 mg/kg daily 5 days per week): 5.01
Log Reduction (M. tuberculosis H37Rv [1]; 10 mg/kg daily 5 days per week): 0.99
MIC (M. tuberculosis): 0.21 µg/mL (≈ 1.53 µM)

CO[C@@H]1[C@@H](OC(N)=O)[C@@H](O)[C@H](Oc2ccc3c(O)c(NC(=O)c4ccc(O)c(CC=C(C)C)c4)c(=O)oc3c2C)OC1(C)C [Novobiocin]
IC50 ([3]; THP-1, 120 h, read-out: Mtb H37Ra in THP1 Cells (IC50)): 2.1 µg/mL (≈ 3.43 µM)
Erdman (MIC) (M. tuberculosis): 61 µg/mL

CO[C@H]1/C=C/O[C@@]2(C)Oc3c(C)c(O)c4c(O)c(c(/C=N/N5CCN(C)CC5)c(O)c4c3C2=O)NC(=O)/C(C)=C\C=C\[C@H](C)C(O)[C@@H](C)[C@@H](O)[C@@H](C)[C@H](OC(C)=O)[C@@H]1C (stereo partly drawn) [Rifampin, (7S,9E,11S,12R,13S,14R,15R,16R,17S,18S,19E,21Z)-2,15,17,27,29-pentahydroxy-11-methoxy-3,7,12,14,16,18,22-heptamethyl-26-{(E)-[(4-methylpiperazin-1-yl)imino]methyl}-6,23-dioxo-8,30-dioxa-24-azatetracyclo[23.3.1.1^4.7.0^5.28]triaconta-1(28),2,4,9,19,21,25(29),26-octaen-13-yl acetate]
IC50 [7]: < 0.05 µg/mL
MIC [3]: 0.008 µg/mL
Log cfu (lung) (M. tuberculosis H37Rv [1]; 10 mg/kg daily 5 days per week): 4.38
Log Reduction (M. tuberculosis H37Rv [1]; 10 mg/kg daily 5 days per week): 1.62
MIC (M. tuberculosis): 0.03 µg/mL

CC(=O)NC[C@H]1CN(c2ccc(N3CCOCC3)c(F)c2)C(=O)O1 [Linezolid]
MIC [3]: 0.37 µg/mL (≈ 1.1 µM)
MIC (M. tuberculosis): 0.53 µg/mL (≈ 1.57 µM)
